Experimental data: US20260001910A1, “PEPTIDES AND USES THEREOF” (PreveCeutical Medical Inc., priority 2021, published 2026)

Columns and labels:
Assay type in all cases: cell-based, human
[1] = test system: Snail-1 mRNA; test: Real time RT-PCR mRNA expression (EMT marker)
From the text: (§1) The real-time reverse transcription polymerase chain reaction (RT-PCR) uses fluorescent reporter molecules to monitor the production of amplification products during each cycle of the PCR reaction. This combines the nucleic acid amplification and detection steps into one homogeneous assay and use of appropriate chemistries and data analysis eliminates the need for Southern blotting or DNA sequencing for amplicon identification. Its simplicity, specificity and sensitivity, together with its potential for high throughput and the ongoing introduction of new chemistries, more reliable instrumentation and improved protocols, has made real-time RT-PCR the benchmark technology for the detection and/or comparison of RNA levels.′
(§2) In order to detect and quantify the expression of specific genes at mRNA level, real-time reverse transcriptase polymerase chain reaction (Real time RT-PCR) was performed. Total RNA of samples was isolated and purified using the PureLink® RNA Mini Kit (Life technologies). The concentration of total RNA was detected by NanoDrop 2000 Spectrophotometer (Thermo Scientific). The total RNA (2000 ng) was reverse transcribed using the High-Capacity cDNA Reverse Transcription Kit (Applied Biosystems™).
(§3) The primers of target genes were TaqMan™ Gene Expression Assay for human PLAU (Hs01547054_m1), MMP-2 (Hs01548727_ml), MMP-9 (Hs00957562_m1), Snail-1 (Hs00195591_m1), Snail-2 (Hs00161904_m1), N-cadherin (Hs00983056_m1) and Twist (Hs01675818_s1). Relative quantification was done by reference to 18S ribosomal RNA (18S rRNA) and analysed using the comparative critical threshold (Ct) method
(§4) The mRNA expression of MMPs was measured using qRT-PCR. This was tested three independent times; the results are shown in Tables 8, 9 and 10 for U251, U87 cells and 081024 cells respectively. Results are reported as percent of the control cells (no treatment). SEQ ID NO.
(§5) Epithelial-mesenchymal transition (EMT) is the process by which epithelial cells acquire a migratory (metastatic) phenotype and so EMT is associated with cancer metastasis, cancer cell stemness, chemoresistance and immune resistance. Therefore, the determination of the mRNA expression of EMT markers is a valuable tool to evaluate invasion potential of cancer cells.
(§6) The ‘Snail’ superfamily is involved in cell differentiation and survival, two processes central in cancer research. Snail-1 has a pivotal role in the regulation of epithelial-mesenchymal transition (EMT) and Snail-1 expression is associated with poor prognosis in metastatic cancer, and tumours with elevated Snail-1 expression are harder to treat. The significance of Snail-1 as a prognostic indicator, its involvement in the regulation of EMT and metastasis, and its roles in both drug and immune resistance point out that Snail-1 is an attractive target for tumour growth inhibition and a target for sensitization to cytotoxic drugs (Kaufhold et al., 2014). Twist is transcriptionally active during cell differentiation and lineage determination. During the establishment of cancer metastases by EMT, Twist acts independently of Snail to suppress E-cadherin and to upregulate N-cadherin (CDH-2) and fibronectin. Snail-2 (Slug) is another member of the SNAIL family of transcriptional activators and serves an important role in suppressing the epithelial phenotype in numerous cancer cells (Iwadate, 2016).

[2] = test system: CDH-2 (N-cadherin) mRNA; test: Real time RT-PCR mRNA expression (EMT marker)
From the text: as §1, §2, §3, §4, §5, §6

[3] = test system: Twist mRNA; test: Real time RT-PCR mRNA expression (EMT marker)
From the text: as §1, §2, §3, §4, §5, §6

[4] = test system: Snail-2 mRNA; test: Real time RT-PCR mRNA expression (EMT marker)
From the text: as §1, §2, §3, §4, §5, §6

[5] = test system: MMP-9; test: Gelatin zymography of conditioned media (metalloprotease production); conditions: conditioned medium, compared to no-peptide control
From the text: (§7) To assess whether the peptide SEQ ID NO. 1 impacted MMP-2, MMP-9 and uPA production Zymography was used.
(§8) Zymography is a technique for studying hydrolytic enzymes on the basis of substrate degradation (Vandooren, J. et al. 2013). The in-gel zymography hydrolytic enzymes are separated by their molecular weights and detected by their ability to degrade a substrate. To detect the activity of MMP-2 and MMP-9 in various cell lines, conditioned media were collected in 3 independent experiments and analysed by gelatin zymography to quantify the level of gelatin digestion, which reflects MMP-2 and MMP-9 activity and production. Cascin-Plasminogen zymography was conducted to determine the activity level of uPA in the conditioned medium from various cell lines. Active uPA converts plasminogen into plasmin which then digests casein, thus clear bands where digestion of casein have occurred indirectly represent uPA activity.
(§9) The effect of the peptides on matrix protease production was tested using in-gel zymography. If the substrate included in the gel is gelatin, the enzymes detected are gelatinases: MMP-2 and MMP-9 (the latter is often of low abundance). If the gel contains casein and plasminogen, the enzymes tested are urokinase plasminogen activators (uPA); uPA is a therapeutic target in GBM.
(§10) An equal amount of protein from each sample was mixed with 5 μL of Laemmli buffer (0.01% Bromophenol Blue (W/V), 5% SDS (W/V), 22% glycerol (V/V), 14% 0.5 M Tris pH 6.8 (V/V)) and loaded onto a 10% polyacrylamide gel co-polymerized with 1 mg/ml of gelatin, and electrophoresed at 120V for 2 hours on ice. The gel was incubated in […] solution (Triton X-100 2.5% (V/V), 1 M Tris pH 7.5 5% (V/V), 0.5 M CaCl2) 1% (W/V) at room temperature overnight on an orbital shaker. The gel was incubated in a second solution for 3 hours at 37° C. The gel was then stained with Coomassie blue solution (Coomassie blue 0.25%, methanol 45%, acetic acid 10%) and destained in methanol 25% (V/V), acetic acid 10% (V/V) destaining solution until clear bands against the dark background appeared around 72 kDa and 95 kDa, representing MMP-2 and MMP-9 activity, respectively. Clear bands around 50 kDa appeared against the dark background representing uPA activity. The gels were scanned, and uPA, MMP-2 and MMP-9 were quantified by densitometry using NIH Image J software.
(§11) SEQ ID NO. 1 was compared to a control containing no peptide to evaluate whether the peptide can reduce the production of matrix proteinases. A reduction in the production of matrix proteinases may be anticipated to result in comparatively less degradation of the extra-cellular matrix and so this could be one pathway by which the invasion potential could be reduced.

[6] = test system: MMP-2; test: as above; conditions: for MMP-2 production: conditioned medium, compared to no-peptide control
From the text: as §7, §8, §9, §10, §11

[7] = 081024 cells, baseline expression level = 1
[8] = U87 cells, baseline expression level = 1
[9] = U251 cells, relative to untreated control, 18S rRNA reference

## CC(C)C[C@@H](NC(=O)[C@@H](Cc1ccccc1)NC(=O)CNC(=O)CNC(=O)[C@H](N)Cc1ccc(O)cc1)C(=O)N[C@H](CCCNC(=N)N)C(=O)N[C@H](CCCNC(=N)N)C(N)=O [SEQ ID NO. 1, tyr-Gly-Gly-phe-leu-arg-arg-NH2]
[1]; [7]
  Snail-1 mRNA expression: halved the expression of Snail-1 mRNA with statistical significance
[1]; 081024 cells, baseline expression level = 1, listed as SEQ ID NO.1
  Snail-1 mRNA expression: 0.53
[1]; [8]
  Snail-1 mRNA expression: 0.65
[1]; [9]
  Snail-1 mRNA expression: 1.11
[2]; [7]
  CDH-2 mRNA expression: 0.72
[2]; [8]
  CDH-2 mRNA expression: 0.83
[2]; [9]
  CDH-2 mRNA expression: 0.88
[3]; [7]
  Twist mRNA expression: 0.73
[3]; [8]
  Twist mRNA expression: 0.70
[3]; [9]
  Twist mRNA expression: 0.87
[4]; [7]
  Snail-2 mRNA expression: 0.78
[4]; [8]
  Snail-2 mRNA expression: 1.05
[4]; [9]
  Snail-2 mRNA expression: 1.06
[5]; 081024 cells
  MMP-9 production: 101.4
[5]; U87 cells
  MMP-9 production: 67.83
[5]; U251 cells
  MMP-9 production: 65.41
[6]; 081024 cells
  MMP-2 production: 100.50
[6]; U87 cells
  MMP-2 production: 91.11
[6]; U251 cells
  MMP-2 production: 97.13
[6]; overall, versus no-peptide control
  effect on production of MMP-2 (in words): did not decrease the production
